Data published in US20260293899A1 (priority 2023, published 2026).

Experiments:
Pythium ultimum = assay: Pythium ultimum/Liquid Culture (Seedling Damping Off); type: cell-based; details: Globisporangium ultimum, read-out: control of Pythium ultimum (inhibition of growth, photometric)
Phytophthora infestans = type: in vivo; details: 200 ppm; tomato leaf disks; preventative, inoculated 1 day after application; assessed 5-7 days after application
Plasmopara viticola = type: in vivo; details: 200 ppm; grape vine leaf disks; preventative, inoculated 1 day after application; assessed 6-8 days after application

Compound | inhibition at 20 ppm (Pythium ultimum) [%] | control of Phytophthora infestans (percent disease control compared to untreated) (Phytophthora infestans) | control of Plasmopara viticola (percent disease control compared to untreated) (Plasmopara viticola)
COC(=O)Nc1ccc(-c2cnc3c(C)cc(C(=O)N(Cc4cnn(C)c4)c4ccc(F)c(OC)c4)cn23)cn1 [Compound 1, methyl N-[5-[6-[(4-fluoro-3-methoxy-phenyl)-[(1-methylpyrazol-4-yl)methyl]carbamoyl]-8-methyl-imidazo[1,2-a]pyridin-3-yl]-2-pyridyl]carbamate] | ≥ 80 | at least 80% | at least 80%
COC(=O)Nc1ccc(-c2cnc3ccc(C(=O)N(Cc4cnn(C)c4)c4ccc(F)c(OC)c4)cn23)cn1 [Compound 2, methyl N-[5-[6-[(4-fluoro-3-methoxy-phenyl)-[(1-methylpyrazol-4-yl)methyl]carbamoyl]imidazo[1,2-a]pyridin-3-yl]-2-pyridyl]carbamate] | ≥ 80 | at least 80% | at least 80%
COC(=O)Nc1ccc(-c2cnc3ccc(C(=O)N(Cc4ccco4)c4ccc(Cl)cc4)cn23)cn1 [Compound 6, methyl N-[5-[6-[(4-chlorophenyl)-(2-furylmethyl)carbamoyl]imidazo[1,2-a]pyridin-3-yl]-2-pyridyl]carbamate] | ≥ 80 | at least 80% | 
COC(=O)Nc1ccc(-c2cnc3ccc(C(=O)N(Cc4ccccc4)c4ccc(F)cc4)cn23)cn1 [Compound 7, methyl N-[5-[6-[benzyl-(4-fluorophenyl)carbamoyl]imidazo[1,2-a]pyridin-3-yl]-2-pyridyl]carbamate] | ≥ 80 |  | 
COC(=O)Nc1ccc(-c2cnc3ccc(C(=O)N(Cc4cnn(C)c4)c4ccc(F)cc4)cn23)cn1 [Compound 8, methyl N-[5-[6-[(4-fluorophenyl)-[(1-methylpyrazol-4-yl)methyl]carbamoyl]imidazo[1,2-a]pyridin-3-yl]-2-pyridyl]carbamate] | ≥ 80 | at least 80% | at least 80%
